Reference: article PMC5974779, “Prediction of Drug-Induced Hepatotoxicity Using Long-Term Stable Primary Hepatic 3D Spheroid Cultures in Chemically Defined Conditions” (Toxicological Sciences, 2018)
Read-outs that look alike come from different tables or passages of the source.

Tests used:
rats = test system: rats; design: method as in McGill et al., 2012b; details: in vivo; ref McGill et al., 2012b; cited from earlier work
[1] = cited from earlier work; for Extent of hepatic metabolism: ref DrugBank and Prescribers' Digital Reference database
PHH 2D sandwich cultures = details: cited from earlier work; for 2Dsw (Xu 2008) 100x: PHH 2D sandwich cultures, 100x Cmax, ref Xu 2008
[2] = test system: PHH spheroids (hanging-drop); details: PHH hanging-drop spheroids, 100x Cmax; ref Proctor 2017; cited from earlier work
[3] = test system: C57BL/6 mouse primary hepatocyte 3D spheroids; test: Animal hepatocyte spheroid hepatotoxicity (ATP viability, 14 days), C57BL/6 (BL6) mouse; assay type: cell-based; details: for hepatotoxicity evaluation in spheroids: C57BL/6 mouse hepatocyte spheroids, 1×, 5×, 20× human cmax, 14 days
[4] = test system: CD1 mouse primary hepatocyte 3D spheroids; test: Animal hepatocyte spheroid hepatotoxicity (ATP viability, 14 days), CD1 mouse; assay type: cell-based; details: for hepatotoxicity evaluation in spheroids: CD1 mouse hepatocyte spheroids, 1×, 5×, 20× human cmax, 14 days
[5] = test system: Wistar rat primary hepatocyte 3D spheroids; test: Animal hepatocyte spheroid hepatotoxicity (ATP viability, 14 days), Wistar rat; assay type: cell-based; details: for hepatotoxicity evaluation in spheroids: Wistar rat hepatocyte spheroids, 1×, 5×, 20× human cmax, 14 days
[6] = test system: Gottingen minipig primary hepatocyte 3D spheroids; test: Animal hepatocyte spheroid hepatotoxicity (ATP viability, 14 days), minipig; assay type: cell-based; details: minipig hepatocyte spheroids, 1×, 5×, 20× human cmax, 14 days
[7] = test system: rhesus monkey primary hepatocyte 3D spheroids; test: Animal hepatocyte spheroid hepatotoxicity (ATP viability, 14 days), rhesus monkey; assay type: cell-based; details: for hepatotoxicity evaluation in spheroids: rhesus monkey hepatocyte spheroids, 1×, 5×, 20× human cmax, 14 days
[8] = test system: primary human hepatocytes (PHH) 3D spheroids
clinical DILI in man = details: cited from earlier work; for Guo et al. (2005): ref Guo et al. (2005); for Xu et al. (2008): ref Xu et al. (2008); for Clinical DILI classification (Figure 5): structural analogue pairs, 2008 and others; for FDA (Severity): FDA drug labeling DILI concern
[9] = therapeutic total cmax; ref PMID; cited from earlier work
[10] = test system: rat, mouse, dog, and cynomolgus monkey; design: method as in Manning and Swartz, 1995; details: ref Manning and Swartz, 1995; cited from earlier work
patients = details: phase I clinical trial, ref McKenzie et al., 1995, cited from earlier work
[11] = Animal hepatocyte spheroid hepatotoxicity (ATP viability, 14 days), minipig; assay type: cell-based, Gottingen minipig; details: Gottingen, primary minipig hepatocyte 3D spheroids; minipig spheroids, no indication of hepatotoxicity
in vitro = details: human
[12] = human liver, ref Yoon et al., 2016
[13] = DILI classification score, ref Suzuki et al. (2010)
[14] = FDA drug labeling DILI score, ref Chen et al., 2011
[15] = clinical DILI classification in man (POS/NEG)
[16] = clinical DILI classification used in this study, Supplementary Table 2, ref Chen et al., 2011, Guo et al., 2005, O'Brien et al., 2006, Sakatis et al., 2012, Suzuki et al., 2010, Xu et al., 2008
[17] = clinical DILI classification, Supplementary Table 1, ref Chen et al., 2011, Guo et al., 2005, O'Brien et al., 2006, Sakatis et al., 2012, Suzuki et al., 2010, Xu et al., 2008
[18] = clinical hepatotoxicity classification, ref Sakatis et al. (2012)
[19] = reported pattern of liver damage, Supplementary Table 2, ref literature
[20] = ref Chen et al., 2011, Xu et al.

SMILES	Extent of hepatic metabolism [1]	2Dsw (Xu 2008) 100x (PHH 2D sandwich cultures)	Hanging-drop spheroids (Proctor 2017) 100x [2]	hepatotoxicity evaluation in spheroids [3]	hepatotoxicity evaluation in spheroids [4]	hepatotoxicity evaluation in spheroids [5]	hepatotoxicity evaluation in spheroids [6]	hepatotoxicity evaluation in spheroids [7]	Chemically defined spheroids (this study) 20x [8]	Guo et al. (2005) (clinical DILI in man; DILI classification score)	Suzuki et al. (2010) (clinical DILI in man; [13])	FDA (0-8) (clinical DILI in man; [14])	DILI in vivo (clinical DILI in man; [15])	Classified as (clinical DILI in man; [16])	DILI in vivo (clinical DILI in man; [17])	Xu et al. (2008) (clinical DILI in man; clinical DILI classification)	Sakatis et al. (2012) (clinical DILI in man; [18])	Type of DILI (clinical DILI in man; [19])	Cmax [9]	FDA (Severity) (clinical DILI in man; ref Chen et al., 2011)	other results
CC(=O)Nc1ccc(O)cc1 [Acetaminophen]	Extensive	Positive	Positive	–	–	–	–	–	–	–	–	–	–	–	–	–	–	–	–	–	acetaminophen-induced hepatotoxicity in rats (rats): resistant to acetaminophen-induced hepatotoxicity; fraction inactivated by sulfation or glucuronidation [1, 12]: around 90%; fraction metabolically activated by CYP2E1 and CYP3A4 to NAPQI [1, 12]: 5%–10%
CCc1nn(CCCN2CCN(c3cccc(Cl)c3)CC2)c(=O)n1CCOc1ccccc1 [Nefazodone]	Extensive	Positive	Positive	flagged as hepatotoxic	flagged as hepatotoxic	flagged as hepatotoxic	flagged as hepatotoxic	flagged as hepatotoxic	Positive	3	3	8	POS	POS	POS	Positive	Hepatotoxic	Hepatocellular injury	3.95 µM	–	hepatotoxicity evaluation in CD-spheroids ([8]; human, 14 days): severe toxicity at 5× and 20× of the therapeutic exposure levels; Clinical DILI classification (Figure 5) (clinical DILI in man; [20]): DILI positive
O=c1[nH]c(=O)n([C@@H]2O[C@H](CO)[C@@H](O)[C@@H]2F)cc1I [Fialuridine]	Minimal	–	–	–	–	–	–	–	Positive	–	2	Discontinued	POS	POS	POS	–	–	Hepatocellular injury, Cholestatic injury or Mixed hepatitis	0.64 µM	most DILI concern	hepatotoxicity evaluation in CD-spheroids [8]: successfully detect fialuridine hepatotoxicity at clinically relevant concentrations; indications of hepatotoxicity in preclinical species [10]: did not show indications of hepatotoxicity; O'Brien et al. (2003) (clinical DILI in man; clinical hepatotoxicity classification, ref O'Brien et al. (2003)): Severely; volunteers with lactic acidosis and acute liver failure (patients; few weeks after commencing therapy): 7 out of 15; volunteers who died (patients; of the 7 with acute liver failure): 5
C1CCC(C(CC2CCCCN2)C2CCCCC2)CC1 (stereo not shown) [Perhexiline]	Extensive	Positive	Positive	flagged as hepatotoxic	flagged as hepatotoxic	flagged as hepatotoxic	flagged as hepatotoxic	flagged as hepatotoxic	Positive	–	3	Withdrawn	POS	POS	POS	Positive	Hepatotoxic	Hepatocellular injury	–	–	–
Cc1c(C)c2c(c(C)c1O)CCC(C)(COc1ccc(CC3SC(=O)NC3=O)cc1)O2 (stereo not shown) [Troglitazone]	Extensive	Positive	Positive	flagged as hepatotoxic	flagged as hepatotoxic	flagged as hepatotoxic	flagged as hepatotoxic	flagged as hepatotoxic	Positive	3	3	Withdrawn	POS	POS	POS	Positive	Hepatotoxic	Hepatocellular injury or Cholestatic injury	6.08 µM	most DILI concern	hepatotoxicity evaluation in CD-spheroids [8]: clearly detected; Clinical DILI classification (Figure 5) (clinical DILI in man; [20]): DILI positive
CC(C)C(=O)Nc1ccc([N+](=O)[O-])c(C(F)(F)F)c1 [Flutamide]	Extensive	Negative	Positive	flagged as hepatotoxic	flagged as hepatotoxic	flagged as hepatotoxic	flagged as hepatotoxic	flagged as hepatotoxic	Positive	3	2	8	POS	POS	POS	Positive	–	Hepatocellular injury, Cholestatic injury or Mixed hepatitis	5.43 µM	most DILI concern	O'Brien et al. (2003) (clinical DILI in man; in vivo): Severely; Sakatis et al. (2012) (clinical DILI in man; in vivo): Hepatotoxic; hepatotoxicity detection in 2D sandwich cultures of PHH (PHH 2D sandwich cultures; 100× cmax, 24 h, high content imaging, ref Xu et al., 2008): liver toxicity was not recognized
Cc1ccc(-c2cc(C(F)(F)F)nn2-c2ccc(S(N)(=O)=O)cc2)cc1 [Celecoxib]	Extensive	–	–	–	–	–	–	–	Positive	–	–	–	–	–	–	–	–	–	2.55 µM	–	viability ([3]; C57BL/6 mouse spheroids, 20× cmax): < 2 % of respective controls; viability ([4]; CD1 mouse spheroids, 20× cmax): < 2 % of respective controls; viability ([5]; rat spheroids, 20× cmax): < 2 % of respective controls; viability at 14 days [11]: > 100%; viability ([7]; monkey spheroids, 20× cmax): < 2 % of respective controls; viability at 14 days, 20 × cmax (in vitro): < 2%; Classified as (clinical DILI in man; in vivo): POS; Clinical DILI class (panel heading of Figure 4) (clinical DILI in man; in vivo): High DILI concern; DILI in vivo (clinical DILI in man; in vivo): POS; FDA (0-8) (clinical DILI in man; in vivo): 3; Suzuki et al. (2010) (clinical DILI in man; in vivo): 1; Type of DILI (clinical DILI in man; in vivo): Hepatocellular injury or Cholestatic injury
